Assay results reported in patent US10221197B2, “Phosphatidylinositol 3-kinase inhibitors” (Gilead Sciences, Inc., priority 2014, dated 2019).
pIC50: −log10 of the molar value. Counter-ions that a name gives are not always drawn.

Legend:
Format in all cases: biochemical
PI3Kβ = PI3Kβ (Homo sapiens (Human), UniProt P42338); assay: TR-FRET enzymatic assay of PI3K isoforms (PI3Kβ); conditions: TR-FRET, 2×Km ATP, 2 μM PIP2, incubated for 30 minutes at 25° C.; read-out: β IC50
Procedure: (§1) The compounds of formula (I) were characterized for their enzymatic activity against the PI3K isoforms. Certain compounds of the present application, including certain compounds of formula (II) and (III) were also characterized for their enzymatic activity against PI3K isoforms. The activities were measured using a time-resolved fluorescence resonance energy transfer (TR-FRET) assay.

PI3Kδ = PI3Kδ (Homo sapiens (Human), UniProt O00329); assay: TR-FRET enzymatic assay of PI3K isoforms (PI3Kδ); conditions: 2×Km ATP, 2 μM PIP2, incubated for 30 minutes at 25° C., read-out: δ IC50
Procedure: as §1

PI3Kγ = PI3Kγ (Homo sapiens (Human), UniProt P48736); assay: TR-FRET enzymatic assay of PI3K isoforms (PI3Kγ); conditions: TR-FRET, 2×Km ATP, 2 μM PIP2, PI3Kγ at 2 nM, incubated for 30 minutes at 25° C.; read-out: γ IC50
Procedure: as §1

PI3Kβ, sequence (P42338 whole entry, canonical isoform): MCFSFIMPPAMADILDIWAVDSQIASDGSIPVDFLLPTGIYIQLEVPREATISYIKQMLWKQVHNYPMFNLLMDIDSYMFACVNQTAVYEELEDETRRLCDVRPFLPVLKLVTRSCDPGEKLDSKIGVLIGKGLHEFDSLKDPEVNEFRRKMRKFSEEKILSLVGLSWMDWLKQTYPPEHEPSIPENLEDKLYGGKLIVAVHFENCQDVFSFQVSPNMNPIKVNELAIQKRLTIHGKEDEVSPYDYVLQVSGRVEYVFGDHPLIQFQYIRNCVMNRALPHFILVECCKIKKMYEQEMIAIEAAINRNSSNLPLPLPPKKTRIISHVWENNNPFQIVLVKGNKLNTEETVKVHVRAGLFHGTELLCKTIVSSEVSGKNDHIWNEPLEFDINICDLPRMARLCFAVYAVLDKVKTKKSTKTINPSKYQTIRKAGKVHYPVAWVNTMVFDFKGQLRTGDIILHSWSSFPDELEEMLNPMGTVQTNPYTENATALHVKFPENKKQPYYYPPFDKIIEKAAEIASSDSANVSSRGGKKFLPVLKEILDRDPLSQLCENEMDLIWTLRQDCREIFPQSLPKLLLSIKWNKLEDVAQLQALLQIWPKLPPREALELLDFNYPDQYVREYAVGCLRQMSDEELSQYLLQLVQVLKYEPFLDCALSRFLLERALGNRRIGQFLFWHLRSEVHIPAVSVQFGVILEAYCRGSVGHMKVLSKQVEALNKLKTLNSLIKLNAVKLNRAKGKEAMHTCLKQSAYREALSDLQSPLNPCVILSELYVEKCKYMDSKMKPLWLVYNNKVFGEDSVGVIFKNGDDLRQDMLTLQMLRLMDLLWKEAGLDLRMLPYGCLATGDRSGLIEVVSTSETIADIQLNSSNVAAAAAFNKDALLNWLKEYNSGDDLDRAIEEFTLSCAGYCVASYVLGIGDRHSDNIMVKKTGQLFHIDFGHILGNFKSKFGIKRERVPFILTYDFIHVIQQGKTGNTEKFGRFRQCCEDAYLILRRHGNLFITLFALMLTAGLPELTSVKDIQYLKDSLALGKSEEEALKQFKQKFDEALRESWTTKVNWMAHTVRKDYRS
PI3Kβ, sequence (P27986 whole entry partner, canonical isoform): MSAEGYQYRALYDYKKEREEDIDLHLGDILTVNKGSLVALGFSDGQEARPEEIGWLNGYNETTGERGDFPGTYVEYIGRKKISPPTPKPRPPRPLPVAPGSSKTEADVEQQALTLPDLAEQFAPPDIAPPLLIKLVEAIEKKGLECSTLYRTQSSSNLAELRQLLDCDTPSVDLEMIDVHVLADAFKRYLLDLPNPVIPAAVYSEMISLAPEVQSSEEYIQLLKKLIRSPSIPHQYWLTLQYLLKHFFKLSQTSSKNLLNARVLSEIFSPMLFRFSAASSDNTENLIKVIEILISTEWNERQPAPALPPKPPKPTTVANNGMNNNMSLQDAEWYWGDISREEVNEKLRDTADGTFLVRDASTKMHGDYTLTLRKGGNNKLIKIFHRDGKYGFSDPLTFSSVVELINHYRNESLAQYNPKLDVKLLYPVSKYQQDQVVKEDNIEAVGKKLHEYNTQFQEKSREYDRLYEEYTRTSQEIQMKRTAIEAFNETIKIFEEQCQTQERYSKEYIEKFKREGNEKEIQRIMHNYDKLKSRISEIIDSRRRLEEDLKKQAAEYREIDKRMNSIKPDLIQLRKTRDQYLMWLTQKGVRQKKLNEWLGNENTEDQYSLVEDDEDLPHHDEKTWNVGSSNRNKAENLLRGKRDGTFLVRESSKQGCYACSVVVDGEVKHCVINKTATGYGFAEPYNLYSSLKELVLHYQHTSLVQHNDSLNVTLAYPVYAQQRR
PI3Kγ, sequence (P48736 whole entry, canonical isoform): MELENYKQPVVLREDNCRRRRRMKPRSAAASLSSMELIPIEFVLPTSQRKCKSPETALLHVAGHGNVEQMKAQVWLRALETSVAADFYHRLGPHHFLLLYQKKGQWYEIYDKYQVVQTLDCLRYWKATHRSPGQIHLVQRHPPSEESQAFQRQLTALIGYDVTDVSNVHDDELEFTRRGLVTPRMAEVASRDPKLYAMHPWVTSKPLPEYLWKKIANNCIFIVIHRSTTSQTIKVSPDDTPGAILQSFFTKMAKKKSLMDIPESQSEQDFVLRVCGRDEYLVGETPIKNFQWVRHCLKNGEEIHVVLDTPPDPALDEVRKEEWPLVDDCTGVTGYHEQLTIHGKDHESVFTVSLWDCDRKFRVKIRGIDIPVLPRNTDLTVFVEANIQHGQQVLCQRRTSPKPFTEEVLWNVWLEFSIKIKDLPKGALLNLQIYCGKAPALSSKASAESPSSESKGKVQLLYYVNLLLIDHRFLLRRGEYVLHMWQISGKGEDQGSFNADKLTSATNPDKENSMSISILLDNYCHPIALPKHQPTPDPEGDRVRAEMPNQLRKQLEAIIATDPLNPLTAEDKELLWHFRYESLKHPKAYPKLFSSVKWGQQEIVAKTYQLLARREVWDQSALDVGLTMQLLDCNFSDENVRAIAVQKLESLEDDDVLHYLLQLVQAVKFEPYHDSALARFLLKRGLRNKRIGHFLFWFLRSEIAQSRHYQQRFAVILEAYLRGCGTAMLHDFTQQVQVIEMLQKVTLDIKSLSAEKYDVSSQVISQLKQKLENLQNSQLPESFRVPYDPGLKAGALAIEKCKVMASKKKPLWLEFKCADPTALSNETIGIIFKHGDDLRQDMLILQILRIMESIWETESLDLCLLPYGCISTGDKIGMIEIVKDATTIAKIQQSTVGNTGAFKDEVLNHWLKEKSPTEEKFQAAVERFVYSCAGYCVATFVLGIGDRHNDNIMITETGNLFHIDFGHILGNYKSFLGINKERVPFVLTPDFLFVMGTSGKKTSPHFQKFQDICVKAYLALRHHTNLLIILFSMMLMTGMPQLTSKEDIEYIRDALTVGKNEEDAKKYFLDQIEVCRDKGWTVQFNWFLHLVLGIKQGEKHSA
PI3Kγ, sequence (Q8WYR1 whole entry partner, canonical isoform): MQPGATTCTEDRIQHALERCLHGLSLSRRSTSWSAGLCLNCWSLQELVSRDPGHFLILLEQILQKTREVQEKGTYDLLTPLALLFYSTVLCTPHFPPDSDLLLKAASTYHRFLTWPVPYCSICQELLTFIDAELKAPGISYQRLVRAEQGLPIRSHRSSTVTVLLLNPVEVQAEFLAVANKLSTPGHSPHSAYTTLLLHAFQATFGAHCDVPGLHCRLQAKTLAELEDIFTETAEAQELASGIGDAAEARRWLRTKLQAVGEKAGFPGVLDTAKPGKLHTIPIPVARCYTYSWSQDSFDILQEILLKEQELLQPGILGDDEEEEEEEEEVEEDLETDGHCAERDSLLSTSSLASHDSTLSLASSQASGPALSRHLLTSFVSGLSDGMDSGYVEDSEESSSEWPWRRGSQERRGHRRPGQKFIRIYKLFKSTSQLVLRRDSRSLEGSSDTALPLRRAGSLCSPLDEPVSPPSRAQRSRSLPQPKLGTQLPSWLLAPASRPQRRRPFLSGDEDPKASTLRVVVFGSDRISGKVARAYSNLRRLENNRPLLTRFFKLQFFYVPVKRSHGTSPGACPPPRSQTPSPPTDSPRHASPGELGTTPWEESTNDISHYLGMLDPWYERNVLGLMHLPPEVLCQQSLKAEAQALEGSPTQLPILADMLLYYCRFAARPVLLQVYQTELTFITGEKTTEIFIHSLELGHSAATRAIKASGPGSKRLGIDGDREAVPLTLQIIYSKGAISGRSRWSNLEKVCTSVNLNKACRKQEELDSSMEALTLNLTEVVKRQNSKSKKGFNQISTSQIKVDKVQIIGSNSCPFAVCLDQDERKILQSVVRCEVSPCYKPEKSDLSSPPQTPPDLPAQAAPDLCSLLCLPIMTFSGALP
PI3Kδ, sequence (O00329 whole entry, canonical isoform): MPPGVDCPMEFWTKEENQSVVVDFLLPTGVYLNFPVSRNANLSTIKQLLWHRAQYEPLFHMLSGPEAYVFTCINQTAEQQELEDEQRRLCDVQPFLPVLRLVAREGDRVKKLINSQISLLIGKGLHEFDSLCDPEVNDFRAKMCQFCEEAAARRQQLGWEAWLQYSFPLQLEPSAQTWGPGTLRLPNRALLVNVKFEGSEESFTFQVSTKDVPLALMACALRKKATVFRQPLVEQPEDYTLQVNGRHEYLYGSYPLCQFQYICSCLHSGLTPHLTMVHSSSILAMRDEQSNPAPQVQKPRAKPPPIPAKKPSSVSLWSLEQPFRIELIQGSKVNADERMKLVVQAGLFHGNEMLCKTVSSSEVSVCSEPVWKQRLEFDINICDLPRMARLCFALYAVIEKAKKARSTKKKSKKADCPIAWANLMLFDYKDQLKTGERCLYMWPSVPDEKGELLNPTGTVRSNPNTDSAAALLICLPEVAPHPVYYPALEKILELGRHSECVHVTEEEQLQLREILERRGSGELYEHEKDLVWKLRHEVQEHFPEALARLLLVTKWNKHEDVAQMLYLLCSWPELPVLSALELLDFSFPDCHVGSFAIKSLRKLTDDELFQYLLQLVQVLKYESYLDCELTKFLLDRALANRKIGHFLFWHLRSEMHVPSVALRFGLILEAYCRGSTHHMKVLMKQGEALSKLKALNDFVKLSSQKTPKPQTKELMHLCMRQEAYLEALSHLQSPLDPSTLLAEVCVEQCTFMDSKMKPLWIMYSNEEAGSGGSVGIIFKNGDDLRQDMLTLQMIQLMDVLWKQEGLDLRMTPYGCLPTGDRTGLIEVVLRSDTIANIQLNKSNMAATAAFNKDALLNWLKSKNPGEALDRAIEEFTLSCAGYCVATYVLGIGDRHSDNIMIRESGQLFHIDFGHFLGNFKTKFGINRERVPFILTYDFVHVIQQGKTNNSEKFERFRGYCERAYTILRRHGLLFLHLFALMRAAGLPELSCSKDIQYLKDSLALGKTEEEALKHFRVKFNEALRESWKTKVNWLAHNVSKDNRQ
PI3Kδ, sequence (P27986 whole entry partner, canonical isoform): as the sequence (P27986 whole entry partner, canonical isoform) above

pIC50 (PI3Kβ) | pIC50 (PI3Kδ) | pIC50 (PI3Kγ) | SMILES
7.66 | 8.52 | 5.30 | CC[C@H](Nc1nc(N)nc(N)c1Cl)c1nc2cccc(C(F)F)c2c(=O)n1-c1cccc(C(N)=O)c1 [Compound 34, (S)-3-(2-(1-((2,6-diamino-5-chloropyrimidin-4-yl)amino)propyl)-5-(difluoromethyl)-4-oxoquinazolin-3(4H)-yl)benzamide]
8.30 | 9.00 | 6.70 | N#Cc1c(N)nc(N)nc1N[C@H](c1nc2cccc(C(F)F)c2c(=O)n1-c1cccc(C(N)=O)c1)C1CC1 [Compound 35, (S)-3-(2-(cyclopropyl((2,6-diamino-5-cyanopyrimidin-4-yl)amino)methyl)-5-(difluoromethyl)-4-oxoquinazolin-3(4H)-yl)benzamide]
6.52 | 8.00 | < 5.00 | C[C@H](Nc1nc(N)nc(N)c1Cl)c1nc2c(C#N)cccc2c(=O)n1-c1cccc(C(N)=O)c1 [Compound 36, (S)-3-(8-cyano-2-(1-((2,6-diamino-5-chloropyrimidin-4-yl)amino)ethyl)-4-oxoquinazolin-3(4H)-yl)benzamide]
6.61 | 8.15 | < 5.00 | C[C@H](Nc1ncnc(N)c1C#Cc1cnccn1)c1nc2cccc(Cl)c2c(=O)n1-c1cccc(C(N)=O)c1 [Compound 37, (S)-3-(2-(1-((6-amino-5-(pyrazin-2-ylethynyl)pyrimidin-4-yl)amino)ethyl)-5-chloro-4-oxoquinazolin-3(4H)-yl)benzamide]
7.28 | 9.00 | 5.82 | C[C@H](Nc1ncnc(N)c1C#Cc1ccccn1)c1nc2cccc(Cl)c2c(=O)n1-c1cccc(C(N)=O)c1 [Compound 38, (S)-3-(2-(1-((6-amino-5-(pyridin-2-ylethynyl)pyrimidin-4-yl)amino)ethyl)-5-chloro-4-oxoquinazolin-3(4H)-yl)benzamide]
7.74 | 7.89 | < 5.00 | CCNC(=O)Nc1cccc(-n2c([C@@H](Nc3ncnc(N)c3[N+](=O)[O-])[C@@H](C)CC)nc3cccc(Cl)c3c2=O)c1 [Compound 43, 1-(3-(2-((1S,2S)-1-((6-amino-5-nitropyrimidin-4-yl)amino)-2-methylbutyl)-5-chloro-4-oxoquinazolin-3(4H)-yl)phenyl)-3-ethylurea]
8.22 | 8.70 | 5.74 | CCNC(=O)Nc1cccc(-n2c([C@H](C)Nc3ncnc(N)c3C#N)nc3cccc(Br)c3c2=O)c1 [Compound 45, (S)-1-(3-(2-(1-((6-amino-5-cyanopyrimidin-4-yl)amino)ethyl)-5-bromo-4-oxoquinazolin-3(4H)-yl)phenyl)-3-ethylurea]
7.46 | 7.77 | < 5.00 | C=CCc1cccc2nc([C@H](C)Nc3ncnc(N)c3C#N)n(-c3cccc(NC(=O)NCC)c3)c(=O)c12 [Compound 46, (S)-1-(3-(5-allyl-2-(1-((6-amino-5-cyanopyrimidin-4-yl)amino)ethyl)-4-oxoquinazolin-3(4H)-yl)phenyl)-3-ethylurea]
7.44 | 7.59 | < 5.00 | CCNC(=O)Nc1cccc(-n2c([C@H](C)Nc3ncnc(N)c3C#N)nc3cccc(F)c3c2=O)c1 [Compound 47, (S)-1-(3-(2-(1-((6-amino-5-cyanopyrimidin-4-yl)amino)ethyl)-5-fluoro-4-oxoquinazolin-3(4H)-yl)phenyl)-3-ethylurea]
8.15 | 8.52 | < 5.00 | CCNC(=O)Nc1cccc(-n2c([C@H](C)Nc3ncnc(N)c3C#N)nc3c(Cl)ccc(Cl)c3c2=O)c1 [Compound 48, (S)-1-(3-(2-(1-((6-amino-5-cyanopyrimidin-4-yl)amino)ethyl)-5,8-dichloro-4-oxoquinazolin-3(4H)-yl)phenyl)-3-ethylurea]
6.64 | 7.62 | < 5.00 | CCNC(=O)Nc1cccc(-n2c([C@H](C)Nc3ncnc(N)c3C#N)nc3c(F)cccc3c2=O)c1 [Compound 49, (S)-1-(3-(2-(1-((6-amino-5-cyanopyrimidin-4-yl)amino)ethyl)-8-fluoro-4-oxoquinazolin-3(4H)-yl)phenyl)-3-ethylurea]
7.08 | 7.66 | < 5.00 | CCNC(=O)Nc1cccc(-n2c([C@H](C)Nc3ncnc(N)c3C#N)nc3c(F)ccc(F)c3c2=O)c1 [Compound 50, (S)-1-(3-(2-(1-((6-amino-5-cyanopyrimidin-4-yl)amino)ethyl)-5,8-difluoro-4-oxoquinazolin-3(4H)-yl)phenyl)-3-ethylurea]
6.47 | 7.41 | < 5.00 | CCNC(=O)Nc1cccc(-n2c([C@H](C)Nc3ncnc(N)c3C#N)nc3ccccc3c2=O)c1 [Compound 52, (S)-1-(3-(2-(1-((6-amino-5-cyanopyrimidin-4-yl)amino)ethyl)-4-oxoquinazolin-3(4H)-yl)phenyl)-3-ethylurea]
6.26 | 7.12 | < 5.00 | CCNC(=O)Nc1cccc(-n2c([C@H](C)Nc3ncnc(N)c3C#N)nc3ccc(F)cc3c2=O)c1 [Compound 53, (S)-1-(3-(2-(1-((6-amino-5-cyanopyrimidin-4-yl)amino)ethyl)-6-fluoro-4-oxoquinazolin-3(4H)-yl)phenyl)-3-ethylurea]
5.59 | 6.60 | < 5.00 | CCNC(=O)Nc1cccc(-n2c([C@H](C)Nc3ncnc(N)c3C#N)nc3cc(F)ccc3c2=O)c1 [Compound 54, (S)-1-(3-(2-(1-((6-amino-5-cyanopyrimidin-4-yl)amino)ethyl)-7-fluoro-4-oxoquinazolin-3(4H)-yl)phenyl)-3-ethylurea]
7.92 | 8.52 | 5.74 | CCNC(=O)Nc1cccc(-n2c([C@H](C)Nc3ncnc(N)c3C#N)nc3cccc(C)c3c2=O)c1 [Compound 55, (S)-1-(3-(2-(1-((6-amino-5-cyanopyrimidin-4-yl)amino)ethyl)-5-methyl-4-oxoquinazolin-3(4H)-yl)phenyl)-3-ethylurea]
5.18 | 6.06 | < 5.00 | CCNC(=O)Nc1cccc(-n2c([C@H](C)Nc3ncnc(N)c3C#N)nc3cccc(OC)c3c2=O)c1 [Compound 56, (S)-1-(3-(2-(1-((6-amino-5-cyanopyrimidin-4-yl)amino)ethyl)-5-methoxy-4-oxoquinazolin-3(4H)-yl)phenyl)-3-ethylurea]
6.24 | 6.21 | < 5.00 | CCNC(=O)Nc1cccc(-n2c([C@H](C)N(C)c3ncnc(N)c3C#N)nc3cccc(Cl)c3c2=O)c1 [Compound 57, (S)-1-(3-(2-(1-((6-amino-5-cyanopyrimidin-4-yl)(methyl)amino)ethyl)-5-chloro-4-oxoquinazolin-3(4H)-yl)phenyl)-3-ethylurea]
8.15 | 8.40 | 5.42 | CCNC(=O)Nc1cccc(-n2c([C@H](C)Nc3ncnc(N)c3C#N)nc3c(F)ccc(Cl)c3c2=O)c1 [Compound 62, (S)-1-(3-(2-(1-((6-amino-5-cyanopyrimidin-4-yl)amino)ethyl)-5-chloro-8-fluoro-4-oxoquinazolin-3(4H)-yl)phenyl)-3-ethylurea]
8.15 | 8.10 | < 5.00 | C[C@H](Nc1ncnc(N)c1C#N)c1nc2c(Cl)ccc(Cl)c2c(=O)n1-c1cccc(NC(=O)NCCCO)c1 [Compound 64, (S)-1-(3-(2-(1-((6-amino-5-cyanopyrimidin-4-yl)amino)ethyl)-5,8-dichloro-4-oxoquinazolin-3(4H)-yl)phenyl)-3-(3-hydroxypropyl)urea]
6.66 | 7.09 | < 5.00 | C[C@H](Nc1ncnc(N)c1C#N)c1nc2c(Cl)cccc2c(=O)n1-c1cccc(NC(=O)NCCCO)c1 [Compound 65, (S)-1-(3-(2-(1-((6-amino-5-cyanopyrimidin-4-yl)amino)ethyl)-8-chloro-4-oxoquinazolin-3(4H)-yl)phenyl)-3-(3-hydroxypropyl)urea]
8.40 | 8.05 | 5.43 | C[C@H](Nc1ncnc(N)c1C#N)c1nc2c(F)ccc(Cl)c2c(=O)n1-c1cccc(NC(=O)NCCCO)c1 [Compound 66, (S)-1-(3-(2-(1-((6-amino-5-cyanopyrimidin-4-yl)amino)ethyl)-5-chloro-8-fluoro-4-oxoquinazolin-3(4H)-yl)phenyl)-3-(3-hydroxypropyl)urea]
7.42 | 7.01 | < 5.00 | C[C@H](Nc1ncnc(N)c1C#N)c1nc2c(F)ccc(F)c2c(=O)n1-c1cccc(NC(=O)NCCCO)c1 [Compound 67, (S)-1-(3-(2-(1-((6-amino-5-cyanopyrimidin-4-yl)amino)ethyl)-5,8-difluoro-4-oxoquinazolin-3(4H)-yl)phenyl)-3-(3-hydroxypropyl)urea]
6.66 | 6.89 | < 5.00 | C[C@H](Nc1ncnc(N)c1C#N)c1nc2c(F)cccc2c(=O)n1-c1cccc(NC(=O)NCCCO)c1 [Compound 68, (S)-1-(3-(2-(1-((6-amino-5-cyanopyrimidin-4-yl)amino)ethyl)-8-fluoro-4-oxoquinazolin-3(4H)-yl)phenyl)-3-(3-hydroxypropyl)urea]

SMILES | pIC50 (PI3Kβ) | pIC50 (PI3Kδ) | pIC50 (PI3Kγ)
CCNC(=O)Nc1cccc(-n2c([C@H](C)Nc3ncnc(N)c3C#N)nc3cccc(C#N)c3c2=O)c1 [Compound 69, (S)-1-(3-(2-(1-((6-amino-5-cyanopyrimidin-4-yl)amino)ethyl)-5-cyano-4-oxoquinazolin-3(4H)-yl)phenyl)-3-ethylurea 2,2,2-trifluoroacetic acid salt] | 6.96 | 8.10 | 5.28
